US5976523A, “Method for healing compromised tissues using pyrimidine derivatives” (Mitsui Pharmaceuticals, Inc., priority 1995, dated 1999)
Counter-ions that a name gives are not always drawn.

Tests used:
[1] = test system: bone defect (tibia); assay: Rat bone defect model, formation of hyaline cartilage matrix; assay type: in vivo; conditions: bFGF (0.5 μg) + compound (0.5 mg) pellet, 7th day, vs bFGF pellet
Excerpt: Action of 2-piperazino-6-methyl-5-oxo-5,6-dihydro(7H)pyrro[3,4-d]pyrimidinemaleate on in vivo chondrogenesis was studied in detail by preparing a rat bone defect model which permits observation of bFGF-derived formation of a hyaline cartilage matrix. Embedment of a bFGF-containing pellet in a bone defect of the model permits easy observation of formation of a hyaline cartilage matrix under the periosteum around the bone defect. Rats were divided into three groups. The rats in one of the groups were each embedded in a formed bone defect (diameter: 2.6 mm) thereof with a hydroxyethyl methacrylate pellet (10 mg) which contained bFGF (0.5 μg). The rats in another one of the groups were each embedded likewise with a hydroxyethyl methacrylate pellet (10 mg) which contained bFGF (0.5 μg) and the invention compound (0.5 mg). The rats in the remaining group, that is, a control group were each embedded similarly with a pellet which contained physiological saline. After the rats in all the three groups were sacrificed seven days later, action of bFGF or the invention compound on the process of chondrogenesis on enchondral ossification around the bone defect was investigated. On the 7th day after the formation of the bone defect, the tibia of each rat was histologically examined around the bone defect.

[2] = test system: PDGF-A mRNAs; assay: Northern blot analysis of PDGF-A mRNA expression in cultured rat SMCs; assay type: cell-based
Description: SMCs were prepared following the method proposed by Ross and Klebanoff in "J. Cell. Biol.", 50, 159 ff, 1971 with partial modifications. A rat thoracic aorta was excised. After the tunica externa was peeled off, the tunica media and the tunica intima were minced into 2-3 mm^2. The minced sections were placed standstill in a 25-cm^2 flask which contained Waymouth's MB 752/1 medium containing 10% FBS and 80 ng/ml of gentamycin (product of Schering-Plough Corp.), followed by incubation at 37° C. for 2 to 3 weeks in the presence of 5% carbon dioxide gas (primary culture). The same volume of a trypsin-EDTA solution was added to the flask. After the sections were treated at 37° C. for 5 minutes to peel off cells, the cells were diluted with 10% FBS-Waymouth's MB 752/1 medium and then subcultured (second generation). Subculture was successively conducted likewise whenever the SMC became confluent. In the following experiments, the cells from the 5th generation to the 12th generation were employed.
After reach in confluence of cells, the cultured SMCs were cultured for 2 days in a serum-free medium to avoid influence of serum. The SMCs were then added with thrombin (1.0 U/ml) or serotonin (5 μM), followed by incubation at 37° C. for 6 hours under which bring about induction of PDGF-A mRNAs at the maximum. To prevent dissociation of ribosomes and mRNAs, cycloheximide (100 μg/ml) was added 5 minutes before cells were collected.
Preparation of a polysome fraction and extraction of RNAs were conducted following the method proposed by Kasper, et al. in "J. Biol. Chem.", 267, 508 ff, 1992 with slight modifications. The cells, which had been collected by the treatment with trypsin, were washed with PBS containing cycloheximide (100 μg/ml). A cell precipitate was then added with 500 μl of a high-salt lysis buffer (20 mM Tris-HCl pH 7.5, 250 mM NaCl, 5 mM MgCl2, 0.1% Noni det P-40, 0.2% DOC) for homogenization. The homogenate was centrifuged under 12,000×g at 4° C. for 10 minutes. The resulting supernatant was added with 67 μl of a heparine mix (7.4 mg/ml heparine, 1.1M NaCl, 15 mM DTT and RNasin). 200 μl of the extract were layered on 5 ml of 0.5-1.25M linear sucrose gradient (which contained 20 mM Tris-HCl pH 7.4, 10 mM NaCl, 3 mM MgCl2), followed by centrifugation under 45,000 rpm for 90 minutes in a "Hitachi RP55ST". While monitoring the absorbance at 260 nm, ten (10) fractions were obtained. To prepare samples for the extraction of RNAs, the fractions were individually added with SDS and proteinase K to give final concentrations of 1% and 0.2 mg/ml, respectively. Subsequent to incubation at 37° C. for 1 hour, each fraction was extracted once with 1/2 volume of phenol, twice with 1/2 volume aliquots of chloroform, and once with the equal volume of chloroform, whereby proteins were removed. The water layer was added with glycogen (20 μg/ml) as a coprecipitant and then with 0.03M of sodium acetate, and RNAs were caused to precipitate with 2 volumes of ethanol.
After RNAs were incubated at 65° C. for 5 minutes in a solution containing 60% of formamide, 5.9% of formaldehyde and the equal volume of MOPS buffer (10 mM MOPS pH 7.0, 4 mM NaOAc, 0.5 mM EDTA), electrophoresis was conducted across 1.2% agarose gels containing the equal volume of MOPS buffer so that RNAs were. isolated. After the gel was washed with 20 volumes of SSC, RNAs were blotted overnight to a Gene Screen Plus membrane by the capillary method. Fixing of the RNAs was conducted by exposing them for 1 minute at a distance of 10 cm from a 15-W sterilamp. Using a "QuickHyb Hybridization Solution" (product of Strategene Ltd.), hybridization was conducted following the instruction manual attached to the solution. Results of autoradiography were quantitated with reference to the NIH Image. […]

[3] = test system: skin or muscle cut; assay: Skin/muscle cut-suture rat model; assay type: in vivo; conditions: scanning electron microscope; indicative of the possibility
Excerpt: As a feature specific to this model, collagen fibers form a plate-like structure so that they cross at right angles with muscle fibers, and macrophages accumulate on the plate-like structure. This plate-like collagen is considered to serve in such a way that it prevents detachment or fraying of both cut ends of muscle fibers and assists formation of an anastomosis.

For CN1Cc2nc(N3CCNCC3)ncc2C1=O [Compound B, 2-piperazino-6-methyl-5-oxo-5,6-dihydro(7H)pyrro[3,4-d]pyrimidine maleate], the “formation of a hyaline cartilage matrix” value [1] was “in an amount apparently larger than that formed in the group embedded with the bFGF-containing pellet”, the fold induction at 100 µM ([2]; Rattus norvegicus, 6 h, read-out: expression amount of 1.7 kb PDGF-A mRNAs compared with control) was 1.4 and the “band of 1.3 kb PDGF-A” value ([2]; addition of compound) was “additionally detected”. For the same molecule, the “2.3 kb PDGF-A mRNAs” value ([2]; compound 0.1 mM + thrombin) was “in greater amounts”, the “2.9 kb PDGF-A mRNAs” value ([2]; compound 0.1 mM + thrombin) was “in greater amounts” and the accumulation of macrophages [3] was “effectively acts for the promotion of the formation of such plate-like collagen and the accumulation of macrophages”. For the same molecule, the “formation of plate-like collagen” value [3] was “effectively acts for the promotion of the formation of such plate-like collagen”.
